Test results published in US6856913B1, “Decentralized patient management method” (Swineburn Limited, priority 1998, dated 2005).

Test system: children diagnosed with ADHD
Assay: SSVEP phase/latency change during the Continuous Performance Task (CPT A-X) before and one hour after stimulant medication
Type: in vivo, human
Settings: one hour after medication vs before
Experimental: An example of the invention will now be briefly described with reference to FIGS. 15 and 16. The method was used on patients who are children diagnosed with Attention Deficit […] Disorder (ADHD).
Children diagnosed with ADHD were tested to examine the effects of stimulant medication (methylphenidate or Ritalin) on the amplitude and phase of the steady state visually evoked potential (SSVEP). The children performed two cognitive tasks before the stimulant medication was administered and then repeat the tasks one hour after stimulant medication was administered.
The first task was a low demand vigilance task where the patients were required to press a micro switch on the predictable appearance of the number “5” in the repeated sequence “1, 2, 3, 4, 5”. The second task was known as the A-X version of the Continuous Performance Task (CPT A-X). In this more demanding task, patients were required to press a micro switch on the appearance of the letter “X” if and only if it has been preceded by the letter “A”.
FIGS. 15 and 16 illustrate the spatial distribution of the difference between the mean SSVEP phase, evaluated over the entire CPT A-X task before medication, and the point in time corresponding to the disappearance of the letter “A” in the CPT A-X task after medication.

COC(=O)C(c1ccccc1)C1CCCCN1 (centres unmarked) [methylphenidate]
change in SSVEP phase (latency) at prefrontal sites (FIG. 15, child diagnosed with ADHD and responding to the stimulant medication): large SSVEP latency reduction at prefrontal sites | change in SSVEP phase (latency) at prefrontal sites (FIG. 16, different child diagnosed with ADHD and not responding to stimulant medication): absence of SSVEP latency reduction at prefrontal sites
